{"source": "patent US5354868A", "about": "“Process for the preparation of (+)-hydantocidin and analogs thereof” (American Cyanamid Company, priority 1993, dated 1994)", "origin": "cited, not measured here", "key": {"[1]": {"test_system": "annual and perennial weeds", "conditions": "compared with glyphosphate and bialaphos"}, "mammals": {"test_system": "mammals", "conditions": "in vivo"}}}
{"smiles": "O=C1NC(=O)[C@@]2(N1)O[C@H](CO)[C@@H](O)[C@H]2O", "note": "[(+)-Hydantocidin, D-ribose-1-spiro-5'-N^1' -β-hydantoin]", "values": [{"measurement": "herbicidal activity", "setting": "[1]", "value": "herbicidal activity at levels comparable to commercial standards such as glyphosphate and bialaphos"}, {"measurement": "toxicity to mammals", "setting": "mammals", "value": "non-toxic to mammals"}]}
